Results from US9968619B2, “Method of treating triple-negative breast cancer using thienotriazolodiazepine compounds” (ONCOETHIX GMBH, priority 2014, dated 2018).

Tests used:
MDA-MB-468 [1] = experiment: Cell counting proliferation, MDA-MB-468; type: cell-based; conditions: Homo sapiens
MDA-MB-231 [2] = experiment: Cell cycle after drug washout, MDA-MB-231; type: cell-based, human; conditions: 75 nM for 72 h, then 48 h of drug washout
Procedure: (§1) Cells were staining with propidium iodide then analyzed using a FACScan flow cytometer. […] After 72 h of treatment, control and treated cells were washed with PBS and re-incubated with compound (1-1) free medium (drug washout). As show in FIG. 14A-14C, significant differences in the percentage of compound (1-1)-treated cells in the G1, S and G2/M phases with respect to untreated controls were determined by a one-way ANOVA test (p<0.001) followed by an SNK a posteriori test. After washout, significant differences in the percentage of cells in a given cell cycle phase between control and pre-treated cells were determined with the Student t-test for independent samples with equal or different variance, as appropriate. * , × and # means significant difference between treated cells respect and controls in G1 phase (*p<0.05, **p<0.01), G2/M phase (×p<0.05, ××p<0.01) and S phase p<0.05, ## p<0.01), respectively. Each bar and vertical line represents the mean±SEM, respectively (n≥3).

MDA-MB-468 [3] = experiment: Cell cycle after drug washout, MDA-MB-468; type: cell-based, human; conditions: 650 nM for 72 h, then drug washout
Procedure: as §1

MDA-MB-231 [4] = experiment: Western blotting and RT-PCR expression, MDA-MB-231; type: cell-based, human; conditions: 75 nM; 24, 48 and 72 h
Excerpt: Logarithmic transformation of the variable was applied before the ANOVA test if required. As shown in FIG. 16A-C, Western blots are representative of three independent experiments where each bar and vertical line represents the mean±SEM, respectively (n=3). As shown in FIG. 15D-15G, C-MYC protein and mRNA levels were unchanged by Compound (1-1) treatment in all the three cell lines.
CDKN1A (p21) mRNA levels were increased in all three cell models (p<0.001). […] Significant differences in the mRNA levels were determined by one-way ANOVA test (p<0.01) followed by SNK a posteriori test (*p<0.05, **p<0.01, […]). Logarithmic transformation of the variable was applied before the ANOVA test if required. Each bar and vertical line represents the mean±SEM, respectively (n=3). Western blots are representative of 3 independent experiments.

[5] = test system: MDA-MB-231 nude mice-derived xenografts; experiment: MDA-MB-231 xenografts in nude mice; type: in vivo
Procedure: In vivo assays were performed in 8-week-old female MDA-MB-231 nude mice-derived xenografts. 10×10^6 cells were injected, when tumor volume reached 100 mm^3, mice were randomized to 4 groups (n=9): 1) vehicle; 2) 50 mg/kg Compound (1-1) (BID, po); 3) 2 mg/kg of everolimus (3 time a week, ip); 4) combination Compound (1-1) and everolimus; 4 weeks treatment.
Symbols with • indicate significant differences between treatment vs. vehicle-treated mice (p<0.05). * indicates a significant difference in the tumor mass between the combination treated animals and the two single agent groups (*p<0.05, **p<0.01 and ***p<0.001). Results represent the mean±SEM (during the treatment period, n=9). Variation of animal body weight during treatment is illustrated in FIG. 18B. […] The T/C ratio was 39% after 10 days of combination treatment, with an optimal value of 21% on day 23. Compound (1-1) can be used for the treatment of TNBC, either alone or in combination with mTOR inhibitors.

HCC1937 = experiment: MTT proliferation assay, HCC1937; conditions: Homo sapiens
MDA-MB-468 [6] = experiment: MTT proliferation assay, MDA-MB-468; conditions: for Emax / GI50: Homo sapiens
[7] = MDA-MB-468, 48 h, 48 h exposure, hypoxia (0.1% O2)
[8] = MDA-MB-468, 48 h, 48 h exposure, hypoxia (0.1% O2), * = apparent value
[9] = MDA-MB-468, 48 h, 48 h exposure, normoxia
[10] = MDA-MB-468, 72 h, 72 h exposure, hypoxia (0.1% O2)
[11] = MDA-MB-468, 72 h, 72 h exposure, normoxia
[12] = Compound (1-1) 50 mg/kg BID po, everolimus 2 mg/kg 3 time a week ip, 4 weeks treatment
[13] = HCC1937, 48 h, 48 h exposure, hypoxia (0.1% O2)
[14] = HCC1937, 48 h, 48 h exposure, normoxia
[15] = HCC1937, 72 h, 72 h exposure, hypoxia (0.1% O2)

GI50 (MDA-MB-468 [1]; [8]): 60.6 nM
GI50 (MDA-MB-468 [1]; [9]): > 6000 nM
GI50 (MDA-MB-468 [1]; [10]): 251 nM
GI50 (MDA-MB-468 [1]; [11]): 304 nM
GI50 (HCC1937; [13]): 23.1 nM
GI50 (HCC1937; [14]): 110 nM
GI50 (HCC1937; [15]): 29 nM
GI50 (HCC1937; HCC1937, 72 h, 72 h exposure, normoxia, * = apparent value): 81.9 nM
GI50 (MDA-MB-468 [6]; [8]): 258 nM
GI50 (MDA-MB-468 [6]; [9]): > 6000 nM
GI50 (MDA-MB-468 [6]; [10]): 296 nM
GI50 (MDA-MB-468 [6]; MDA-MB-468, 72 h, 72 h exposure, normoxia, * = apparent value): 448 nM
SMILES: Cc1sc2c(c1C)C(c1ccc(Cl)cc1)=N[C@@H](CC(=O)Nc1ccc(O)cc1)c1nnc(C)n1-2 [Compound (1-1), 2-[(6S)-4-(4-chlorophenyl)-2,3,9-trimethyl-6H-thienol[3,2-f]-[1,2,4]triazolo[4,3-a][1,4]diazepin-6-yl]-N-(4-hydroxyphenyl)acetamide dihydrate]
Emax (MDA-MB-468 [1]; [7]): 50%
Emax (MDA-MB-468 [1]; [9]): 30%
Emax (MDA-MB-468 [1]; [10]): 71%
Emax (MDA-MB-468 [1]; [11]): 80%
cell cycle pattern after drug washout (MDA-MB-231 [2]): recovered the control cell cycle pattern
cell cycle pattern after drug washout (MDA-MB-468 [3]): substantial (p<0.05) accumulation of cells in G2/M phase
BRD2 levels (MDA-MB-231 [4]): increased
body weight ([5]; 50 mg/kg BID po, after 19 days of treatment): without body weight loss
best T/C % [5, 12]: 40.7%
tumor mass with respect to vehicle-treated mice [5, 12]: significant (p<0.05) reduction
Emax (HCC1937; [13]): 60%
Emax (HCC1937; [14]): 41%
Emax (HCC1937; [15]): 74%
Emax (HCC1937; HCC1937, 72 h, 72 h exposure, normoxia): 51%
Emax (MDA-MB-468 [6]; [7]): 53%
Emax (MDA-MB-468 [6]; [9]): < 10%
Emax (MDA-MB-468 [6]; [10]): 77%
Emax (MDA-MB-468 [6]; [11]): 42%
effect of hypoxia on antiproliferative activity (MDA-MB-468 [6]; hypoxia (0.1% O2) vs normoxia, MTT assay and cell counting): significantly (p<0.05) increased
